The target in one experiment is T1, human RORγ (Homo sapiens, UniProt P51449).
T1 construct: human, NM_005060.3 and from Ser253 to Lys518; expressed in transfected cells; host or cells: CHO cells (transient co-transfection with pG5-Luc reporter)
T1 sequence (P51449 253-518): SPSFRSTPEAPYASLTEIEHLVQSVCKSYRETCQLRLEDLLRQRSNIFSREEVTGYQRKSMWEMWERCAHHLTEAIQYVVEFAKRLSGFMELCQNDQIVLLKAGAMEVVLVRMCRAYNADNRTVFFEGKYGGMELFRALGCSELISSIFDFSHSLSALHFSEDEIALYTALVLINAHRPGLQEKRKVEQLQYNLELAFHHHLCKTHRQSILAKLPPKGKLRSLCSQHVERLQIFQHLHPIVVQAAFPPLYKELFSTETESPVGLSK
Put plainly: Luciferase reporter gene assay of inhibitory effect against RORγ transcriptional activity (GAL4-hRORγ plasmid in CHO cells). Type of experiment: cell-based. Conditions: read-out: LUC EC50 (μM) hRORg. (In a reporter assay the amount or activity of a reporter protein is the signal.)

The target in the next experiment is T2, mouse RORγ (Mus musculus, UniProt P51450).
T2 construct: mouse, NM_011281.2 and from Ile251 to Lys516; expressed in transfected cells; host or cells: CHO cells (transient co-transfection with pG5-Luc reporter)
T2 sequence (P51450 251-516): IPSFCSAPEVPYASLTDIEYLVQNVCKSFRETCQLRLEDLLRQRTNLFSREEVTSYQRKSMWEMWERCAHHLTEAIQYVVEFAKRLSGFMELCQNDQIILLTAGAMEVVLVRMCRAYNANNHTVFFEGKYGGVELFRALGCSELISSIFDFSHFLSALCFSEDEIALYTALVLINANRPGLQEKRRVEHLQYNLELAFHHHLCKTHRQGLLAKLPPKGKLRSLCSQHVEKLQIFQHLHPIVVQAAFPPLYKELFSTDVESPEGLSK
Put plainly: Luciferase reporter gene assay of inhibitory effect against RORγ transcriptional activity (GAL4-mRORγ plasmid in CHO cells). Conditions: read-out: LUC EC50 (μM) mRORg. It is filed as cell-based. An outline of the steps:
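Readout is intracellular luciferase after 2-day compound exposure (8 concentrations, 0.1% DMSO) in CHO cells expressing GAL4 fused to mouse RORγ LBD residues Ile251–Lys516 plus pG5-Luc reporter. EC50 fitted from %-of-control; points showing resazurin-detected cytotoxicity dropped.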

`Cc1ccc(NC(=O)[C@H]2CCCN(C(=O)CO)[C@@H]2c2nnc(CCCC(C)(C)C)n2C2CC2)c(C)c1` [Example F-308]: the EC50 at human RORγ and on mouse RORγ was under 3 µM throughout.
Take `Cc1ccc(NC(=O)[C@H]2CCCN[C@@H]2c2nnc(CCCC(C)(C)C)n2C2CC2)c(C)c1` [Example F-309]: the EC50 at human RORγ and on mouse RORγ was under 3 µM throughout.
As for `Cc1ccc(NC(=O)[C@H]2CCCN(C)[C@@H]2c2nnc(CCCC(C)(C)C)n2C2CC2)c(C)c1` [Example F-310], the EC50 on human RORγ and on mouse RORγ was under 3 µM each time.
As to `COc1cc(C)ccc1CNC(=O)C[C@H](NC(C)=O)c1nnc(CCCC(C)C)n1C1CC1` [Example F-312], the EC50 on human RORγ and at mouse RORγ was over 3 µM each time.
`Cc1ccc(NC(=O)C[C@@H](CCO)c2nnc(CCCC(C)C)n2C2CC2)c(C)c1` [Example F-313]: the EC50 at human RORγ and on mouse RORγ was over 3 µM each time.
Regarding `Cc1ccc(NC(=O)C[C@H](CCO)c2nnc(CCCC(C)C)n2C2CC2)c(C)c1` [Example F-314], the EC50 at human RORγ and on mouse RORγ was under 3 µM throughout.
On to `CC(=O)N1C[C@H](C(=O)Nc2ccc(C)cc2C)[C@@H](c2nnc(CCCC(C)C)n2C2CC2)C1` [Example F-315], for which the EC50 on human RORγ and on mouse RORγ was under 3 µM each time.
Regarding `CC(=O)N1C[C@@H](C(=O)Nc2ccc(C)cc2C)[C@H](c2nnc(CCCC(C)C)n2C2CC2)C1` [Example F-316], the EC50 on human RORγ and at mouse RORγ was over 3 µM in each case.
On to `Cc1ccc(NC(=O)CCc2nnc(-c3ccc(C(C)C)cc3)n2C2CC2)c(C)c1` [Example F-320], for which the EC50 on human RORγ and at mouse RORγ was under 3 µM throughout.
In the case of `Cc1ccc(NC(=O)[C@H]2CCC(=O)N(C)[C@@H]2c2nnc(CCCC(C)(C)C)n2C2CC2)c(C)c1` [Example F-322], the EC50 at human RORγ and at mouse RORγ was under 3 µM each time.
For `COc1cc(C)ccc1CNC(=O)[C@H]1CCC(=O)N(C)[C@@H]1c1nnc(CCCC(C)(C)C)n1C1CC1` [Example F-323], the EC50 at human RORγ and at mouse RORγ was under 3 µM each time.
With `Cc1ccc(NC(=O)C[C@@H](CCO)c2nnc(CCCC(C)(C)C)n2C2CC2)c(C)c1` [Example F-326], the EC50 on human RORγ and at mouse RORγ was over 3 µM throughout.
Regarding `Cc1ccc(NC(=O)C[C@H](CCO)c2nnc(CCCC(C)(C)C)n2C2CC2)c(C)c1` [Example F-327], the EC50 at human RORγ and at mouse RORγ was under 3 µM throughout.
As for `CC(=O)N1C[C@H](C(=O)Nc2ccc(C)cc2C)[C@@H](c2nnc([C@H]3C[C@H](OC(C)C)C3)n2C2CC2)C1` [Example F-334], the half-maximal effective concentration (EC50) at human RORγ and on mouse RORγ was under 3 µM each time.
As for `CC(=O)N1C[C@@H](C(=O)Nc2ccc(C)cc2C)[C@H](c2nnc([C@H]3C[C@H](OC(C)C)C3)n2C2CC2)C1` [Example F-335], the EC50 at human RORγ and at mouse RORγ was over 3 µM throughout.
As to `CC(=O)N1C[C@H](C(=O)Nc2ccc(C)cc2C)[C@@H](c2nnc([C@H]3C[C@@H](OC(C)C)C3)n2C2CC2)C1` [Example F-336], the EC50 at human RORγ and at mouse RORγ was over 3 µM throughout.
Turning to `CC(=O)N1C[C@@H](C(=O)Nc2ccc(C)cc2C)[C@H](c2nnc([C@H]3C[C@@H](OC(C)C)C3)n2C2CC2)C1` [Example F-337], the EC50 at human RORγ and at mouse RORγ was over 3 µM throughout.
Regarding `CC(=O)N1C[C@H](C(=O)Nc2ccc(C)cc2C)[C@@H](c2nnc(CCCC(C)(C)C)n2C2CC2)C1` [Example F-338], the EC50 at human RORγ and on mouse RORγ was under 3 µM each time.
In the case of `CC(=O)N1C[C@@H](C(=O)Nc2ccc(C)cc2C)[C@H](c2nnc(CCCC(C)(C)C)n2C2CC2)C1` [Example F-339], the EC50 on human RORγ and at mouse RORγ was over 3 µM in each case.
Turning to `Cc1ccc(NC(=O)C[C@@H](C[C@H](O)CO)c2nnc(CCCC(C)C)n2C2CC2)c(C)c1` [Example F-342], the EC50 on human RORγ and on mouse RORγ was over 3 µM in each case.
`Cc1ccc(NC(=O)C[C@H](C[C@H](O)CO)c2nnc(CCCC(C)C)n2C2CC2)c(C)c1` [Example F-343]: the EC50 at human RORγ and at mouse RORγ was under 3 µM throughout.
Turning to `CC(=O)N[C@@H](CC(=O)Nc1ccc(C)cc1C)c1nnc(CCCC(C)(C)C)n1C1CC1` [Example F-344], the EC50 at human RORγ and at mouse RORγ was under 3 µM each time.
Turning to `Cc1ccc(NC(=O)C[C@@H](c2nnc(CCCC(C)(C)C)n2C2CC2)N(C)C(=O)OCc2ccccc2)c(C)c1` [Example F-352], the EC50 at human RORγ and on mouse RORγ was over 3 µM in each case.
Take `CN[C@@H](CC(=O)Nc1ccc(C)cc1C)c1nnc(CCCC(C)(C)C)n1C1CC1` [Example F-353]: the EC50 on human RORγ and on mouse RORγ was under 3 µM in each case.
As to `CC(=O)N(C)[C@@H](CC(=O)Nc1ccc(C)cc1C)c1nnc(CCCC(C)(C)C)n1C1CC1` [Example F-354], the EC50 at human RORγ and on mouse RORγ was under 3 µM throughout.
Regarding `Cc1ccc(NC(=O)C[C@H](NC(=O)OCc2ccccc2)c2nnc(CCCC(C)(C)C)n2C2CC2)c(C)c1` [Example F-355], the EC50 at human RORγ and at mouse RORγ was under 3 µM throughout.
For `Cc1ccc(NC(=O)CCc2nnc([C@H]3C[C@H](CC(C)C)C3)n2C2CC2)c(C)c1` [Example F-357], the EC50 on human RORγ and at mouse RORγ was under 3 µM throughout.
For `Cc1ccc(NC(=O)CCc2nnc([C@H]3C[C@@H](CC(C)C)C3)n2C2CC2)c(C)c1` [Example F-358], the EC50 at human RORγ and on mouse RORγ was under 3 µM in each case.
As for `Cc1ccc(NC(=O)C[C@H](N)c2nnc(CCCC(C)(C)C)n2C2CC2)c(C)c1` [Example F-359], the EC50 at human RORγ and at mouse RORγ was under 3 µM in each case.
Turning to `Cc1ccc(NC(=O)C[C@@H](CCO)c2nnc([C@H]3C[C@@H](CC(C)C)C3)n2C2CC2)c(C)c1` [Example F-360], the EC50 at human RORγ and on mouse RORγ was over 3 µM throughout.
Regarding `Cc1ccc(NC(=O)C[C@H](CCO)c2nnc([C@H]3C[C@@H](CC(C)C)C3)n2C2CC2)c(C)c1` [Example F-361], the EC50 at human RORγ and at mouse RORγ was under 3 µM each time.
In the case of `CCn1c(CCCC(C)(C)C)nnc1[C@@H]1[C@@H](C(=O)Nc2ccc(C)cc2C)CCN1C(C)=O` [Example F-369], the EC50 on human RORγ and on mouse RORγ was under 3 µM each time.
Turning to `CCn1c(CCCC(C)(C)C)nnc1[C@@H]1[C@@H](C(=O)NCc2ccc(C)cc2OC)CCN1C(C)=O` [Example F-370], the EC50 on human RORγ and on mouse RORγ was under 3 µM in each case.
With `CC(=O)N1C[C@H](C(=O)Nc2ccc(C)cc2C)[C@@H](c2nnc(-c3ccc(C(C)C)cc3)n2C2CC2)C1` [Example F-371], the EC50 at human RORγ and at mouse RORγ was under 3 µM each time.
For `CC(=O)N1C[C@@H](C(=O)Nc2ccc(C)cc2C)[C@H](c2nnc(-c3ccc(C(C)C)cc3)n2C2CC2)C1` [Example F-372], the EC50 at human RORγ and at mouse RORγ was over 3 µM each time.
Take `CC(=O)N1C[C@H](C(=O)Nc2ccc(C)cc2C)[C@@H](c2nnc(CCC3CCCCC3)n2C2CC2)C1` [Example F-374]: the EC50 at human RORγ and on mouse RORγ was under 3 µM throughout.
`CC(=O)N1C[C@@H](C(=O)Nc2ccc(C)cc2C)[C@H](c2nnc(CCC3CCCCC3)n2C2CC2)C1` [Example F-375]: the EC50 on human RORγ and on mouse RORγ was over 3 µM throughout.
For the molecule `Cc1ccc(NC(=O)C[C@@H](CCO)c2nnc(CCCC(C)(C)C)n2CC(F)(F)F)c(C)c1` [Example F-379], the results for the EC50 on human RORγ and at mouse RORγ were over 3 µM and under 3 µM, respectively.
In the same order, the values of `Cc1ccc(NC(=O)C[C@H](CCO)c2nnc(CCCC(C)(C)C)n2CC(F)(F)F)c(C)c1` [Example F-380] are under 3 µM and under 3 µM.
In the same order, the values of `C=CC[C@H](CC(=O)Nc1ccc(C)cc1C)c1nnc(CCCC(C)(C)C)n1C1CC1` [Example F-381] are over 3 µM and under 3 µM.
`Cc1ccc(NC(=O)C[C@@H](CCO)c2nnc(CCC3CCCCC3)n2C2CC2)c(C)c1` [Example F-384]: the EC50 on human RORγ and at mouse RORγ was over 3 µM each time.
In the case of `Cc1ccc(NC(=O)C[C@H](CCO)c2nnc(CCC3CCCCC3)n2C2CC2)c(C)c1` [Example F-385], the concentration for a half-maximal effect (EC50) at human RORγ and at mouse RORγ was under 3 µM in each case.
In the case of `Cc1ccc(NC(=O)[C@H]2CC(=O)N(C)[C@@H]2c2nnc(CCCC(C)(C)C)n2C2CC2)c(C)c1` [Example F-388], the EC50 at human RORγ and on mouse RORγ was under 3 µM in each case.
Regarding `C=CC[C@@H](CC(=O)Nc1ccc(C)cc1C)c1nnc(CCCC(C)(C)C)n1C1CC1` [Example F-389], the EC50 on human RORγ and on mouse RORγ was under 3 µM each time.
With `CC(=O)N1C[C@H](C(=O)Nc2ccc(C)cc2C)[C@@H](c2nnc(CCCC(C)(C)C)n2CC(F)(F)F)C1` [Example F-392], the EC50 on human RORγ and on mouse RORγ was under 3 µM throughout.

The term EC50 denotes the concentration needed to bring the measured effect to its halfway point.

(Values after patent US20160137639A1, “TRIAZOLE-ISOXAZOLE COMPOUND AND MEDICAL USE THEREOF” (JAPAN TOBACCO INC., priority 2012, published 2016).)
